Test results published in patent publication US7323303B2, “Modified β-lactamases and uses thereof” (priority 2003, dated 2008).

Columns and labels:
Type in all cases: biochemical
[1] = target: T1, E. coli TEM-1 β-lactamase (Escherichia coli, UniProt P62593); assay: Drug screening: E166Cf fluorescence in presence of bacterial β-lactamase culture; set-up: key: −: Decline in fluorescence signal (presence of beta-lactam hydrolysis); +: No decline in fluorescence signal (absence of beta-lactam hydrolysis); details: E. coli TEM-1 culture, undiluted; antibiotic 1.0×10^−4 M; E166Cf 1.2×10^−7 M
T1 construct: made in house; host or cells: E. coli BL21(DE3); whole overnight culture used undiluted, not purified
T1 sequence (P62593 24-286 limits assumed): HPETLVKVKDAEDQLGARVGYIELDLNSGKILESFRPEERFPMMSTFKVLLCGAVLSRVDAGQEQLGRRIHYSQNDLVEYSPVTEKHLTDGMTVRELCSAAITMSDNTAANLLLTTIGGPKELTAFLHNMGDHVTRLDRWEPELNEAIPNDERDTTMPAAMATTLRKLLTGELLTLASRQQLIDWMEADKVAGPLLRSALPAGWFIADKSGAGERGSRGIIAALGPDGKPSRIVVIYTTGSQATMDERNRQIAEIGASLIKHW
Method: (§1) The use of the E166Cf enzyme in screening bacterial β-lactamases against various β-lactam antibiotics was investigated. The principle of our method is that when both E166Cf and bacterial β-lactamase are incubated with ‘β-lactamase-unstable’ antibiotics, the fluorescence of the E166Cf enzyme will be suppressed because of the greater catalytic efficiency of the bacterial enzyme. In contrast, when bacterial β-lactamases are screened against ‘β-lactamase-resistant’ antibiotics, the fluorescence of the E166Cf enzyme will be enhanced because of the poor hydrolytic activity of the bacterial enzyme. Thus, any β-lactam antibiotic that causes the labeled enzyme to increase its fluorescence intensity in the presence of bacterial β-lactamases can be used in clinical treatments.
The TEM-1 β-lactamase was expressed in E. coli. BL21(DE3). Preparation of the TEM-1 β-lactamase was performed as follows. A bacterial strain was streaked on an agar plate containing 100 μg/ml ampicillin, and the plate was incubated at 37° C. for 24 h. A single bacterial colony from the plate was inoculated into 100 ml of sterilized LB broth (28 g/l) which was then incubated at 37° C. with shaking at 280 rpm overnight. After overnight incubation, the bacterial culture was harvested and stored at −20° C.
(§2) Fluorescence measurements of the E166Cf enzyme in the presence of bacterial cultures and β-lactam antibiotics were performed on a FLUOstar microplate reader (BMG Labtechnologies) equipped with two sample injectors. Excitation and emission filters of 485 and 520 nm respectively were used. For B. cereus penPC β-lactamase, B. licheniformis penP β-lactamase and B. cereus β-lactamase II, the labeled enzymes were mixed with the bacterial cultures, and the mixtures were made up to 300 μl with 50 mM phosphate buffer (pH 7.0) in a 96-well microtiter plate (Corning Costar). For the purpose of comparison, B. subtilis cultures, which produced no β-lactamase, were set up as negative controls. For E. coli. TEM-1 β-lactamase, the labeled enzymes were mixed with the bacterial cultures without dilution. E. coli. cultures, which produced no β-lactamase, were set up as negative controls for comparison. The antibiotics were then added to the bacterial samples by the injectors.
(§3) The results from the time-resolved fluorescence measurements of the labeled enzyme (1.2×10^−7 M) in the presence of various bacterial cultures and β-lactam antibiotics (1.0×10^−4 M) are shown in FIGS. 23 to 26.

[2] = target: T2, E166Cf enzyme (Bacillus cereus, UniProt P00809, E185C); assay: Time-resolved fluorescence of E166Cf enzyme with penicillins and cephalosporins; details: E166Cf 1.2×10^−7 M, 50 mM phosphate buffer pH 7.0; up to one hour
T2 construct: made in house; host or cells: B. subtilis 1A304 (φ105MU331); then labelled chemically
T2 sequence (P00809 28-306 E185C): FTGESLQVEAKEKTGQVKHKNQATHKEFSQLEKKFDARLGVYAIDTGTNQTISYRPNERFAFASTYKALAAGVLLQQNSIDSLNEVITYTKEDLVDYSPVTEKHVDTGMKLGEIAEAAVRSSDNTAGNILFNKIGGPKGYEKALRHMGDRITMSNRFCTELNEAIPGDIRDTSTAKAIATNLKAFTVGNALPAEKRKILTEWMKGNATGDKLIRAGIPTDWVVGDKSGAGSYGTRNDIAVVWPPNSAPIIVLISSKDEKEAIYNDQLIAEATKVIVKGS
Method: Fluorescence measurements of the E166Cf enzyme in the presence of penicillin G, penicillin V, ampicillin, cefuroxime, cefoxitin and moxalactam were performed on a Perkin Elmer LS50B spectrofluorometer. For time-resolved fluorescence measurement, excitation and emission wavelengths were set at 494 and 515 nm respectively. Both excitation and emission slit widths were set at 5 nm. All fluorescence measurements were performed at room temperature.
With penicillin G as substrate, the fluorescence signal of the E166Cf enzyme (1.2×10^−7 M) at 515 nm in 50 mM phosphate buffer (pH 7.0) increases as a function of the antibiotic concentration (FIG. 4). The time-resolved fluorescence signals of the E166Cf enzyme at 515 nm were also measured with various concentrations of penicillin G (FIG. 5). At low antibiotic concentration (1.0×10^−7 and 1.0×10^−6 M), the fluorescence intensity of the E166Cf enzyme increases gradually and then declines. At high antibiotic concentration (1.0×10^−5 and 1.0×10^−4 M), the fluorescence signal increases instantaneously and levels off to a plateau. The fluorescence signal stays at the plateau for a certain length of time and then declines afterwards. Similar results were obtained with penicillin V and ampicillin (FIGS. 6 and 7).
With cefuroxime, cefoxitin and moxalactam as substrates, the fluorescence intensities of the E166Cf enzyme (1.2×10^−7 M) at 515 nm in 50 mM phosphate buffer (pH 7.0) also increase as a function of antibiotic concentration (FIGS. 8 to 10).
(§4) At high substrate concentration (1.0×10^−5 and 1.0×10^−4 M), the penicillin substrates rapidly occupy the active sites to form the ES complexes, thus switching on the fluorescence of the fluorescein labels instantaneously. […] This can be verified by the fact that the ‘plateau time’ (8 and 22 min for 1.0×10^−5 and 1.0×10^−4 M penicillin G respectively) is consistent with the ‘substrate hydrolysis time’ determined by spectrophotometric assays (7 and 20 min for 1.0×10^−5 and 1.0×10^−4 M penicillin G respectively). When most of the penicillin substrates have been hydrolyzed to carboxylic acids, the fluorescence signal of the labeled enzyme will decline subsequently.

[3] = target: T2, E166Cf enzyme; assay: Circular dichroism assay of antibiotic hydrolysis by E166Cf; details: 1.0×10^−4 M antibiotic, E166Cf 1.2×10^−7 M, one hour incubation
Source text: The absence of a declining fluorescence signal for cefuroxime, cefoxitin and moxalactam can be ascribed to the poor hydrolytic activities of the E166Cf enzyme towards these antibiotics (very low k2 and/or k3) (FIG. 14). As a result, the cephalosporin substrates stay in the active sites. To verify this, the activities of the labeled enzyme with cefuroxime, cefoxitin and moxalactam as substrates were monitored by circular dichroism (CD) spectropolarimetry. […] Therefore, by measuring the CD signals of cefuroxime, cefoxitin and moxalactam (1.0×10^−4 M) at 258, 264 and 265 nm respectively as a function of time in the presence of E166Cf enzyme (1.2×10^−7 M), the hydrolytic activities of the labeled enzyme towards these antibiotics can be monitored.

[4] = target: T3, B. cereus penPC β-lactamase (Bacillus cereus, UniProt P00809); assay: Drug screening: E166Cf fluorescence in presence of bacterial β-lactamase culture; set-up: key: −: Decline in fluorescence signal (presence of beta-lactam hydrolysis); +: No decline in fluorescence signal (absence of beta-lactam hydrolysis); details: antibiotic 1.0×10^−4 M, E166Cf 1.2×10^−7 M
T3 construct: made in house; host or cells: B. subtilis 1A304 (φ105MU331); whole culture used, not purified
T3 sequence (P00809 28-306): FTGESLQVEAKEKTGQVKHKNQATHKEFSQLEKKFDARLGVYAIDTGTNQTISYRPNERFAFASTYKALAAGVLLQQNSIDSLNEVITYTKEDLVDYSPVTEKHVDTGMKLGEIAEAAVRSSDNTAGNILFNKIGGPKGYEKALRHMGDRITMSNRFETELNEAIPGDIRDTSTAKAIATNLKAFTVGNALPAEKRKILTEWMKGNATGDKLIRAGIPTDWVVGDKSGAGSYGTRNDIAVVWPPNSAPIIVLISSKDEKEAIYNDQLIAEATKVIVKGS
Method: as §1
(§5) The β-lactamase II, penPC β-lactamase and penP β-lactamase were expressed in B. subtilis 1A304 (φ105MU331). These enzymes were prepared according to the procedures described previously (Reference 7: Thomwell, S. J. East, A. K., Errington, J. An efficient expression and secretion system based on Bacillus subtilis phage phi 105 and its uses for the production for B. cereus β-lactamase I. (1993) Gene 133, 47-53) with slight modifications. A bacterial strain was streaked on an agar plate containing 5 μg/ml chloramphenicol, and the plate was incubated at 37° C. for 24 h. A single bacterial colony from the agar plate was inoculated into 100 ml of sterilized BHY medium (37 g/l brain heart infusion and 5 g/l yeast extract) which was then incubated at 37° C. with shaking at 300 rpm overnight. About 7 ml of overnight inoculum was added to a baffled conical flask containing 100 ml of sterilized BHY medium. The inoculated medium was incubated at 37° C. with shaking at 300 rpm. When the optical density of the bacterial culture at 600 nm reached 3.5 to 4.0, the bacterial culture was heated in a water bath at 51° C. for 5 min. Afterwards, the bacterial culture was incubated at 37° C. with shaking at 300 rpm for a further 6 h. The bacterial culture was then harvested and stored at −20° C.
as §2, §3

[5] = target: T4, B. licheniformis penP β-lactamase (Bacillus licheniformis, UniProt P00808); assay: as above; set-up: key: −: Decline in fluorescence signal (presence of beta-lactam hydrolysis); +: No decline in fluorescence signal (absence of beta-lactam hydrolysis); details: antibiotic 1.0×10^−4 M, E166Cf 1.2×10^−7 M
T4 construct: made in house; host or cells: B. subtilis 1A304 (φ105MU331); whole culture used, not purified
T4 sequence (P00808 27-307): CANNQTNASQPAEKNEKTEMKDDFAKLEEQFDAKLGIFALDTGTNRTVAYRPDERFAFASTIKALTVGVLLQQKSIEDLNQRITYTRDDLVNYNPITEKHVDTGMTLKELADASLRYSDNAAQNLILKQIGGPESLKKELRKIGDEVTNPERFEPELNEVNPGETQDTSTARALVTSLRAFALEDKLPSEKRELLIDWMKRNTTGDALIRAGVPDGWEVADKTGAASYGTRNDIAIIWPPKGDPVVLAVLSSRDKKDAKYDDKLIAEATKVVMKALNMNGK
Method: as §1, §5, §2, §3

[6] = target: T5, B. cereus β-lactamase II (Bacillus cereus, UniProt P04190); assay: as above; set-up: key: −: Decline in fluorescence signal (presence of beta-lactam hydrolysis); +: No decline in fluorescence signal (absence of beta-lactam hydrolysis); details: antibiotic 1.0×10^−4 M, E166Cf 1.2×10^−7 M
T5 construct: made in house; host or cells: B. subtilis 1A304 (φ105MU331); whole culture used, not purified
T5 sequence (P04190 31-257): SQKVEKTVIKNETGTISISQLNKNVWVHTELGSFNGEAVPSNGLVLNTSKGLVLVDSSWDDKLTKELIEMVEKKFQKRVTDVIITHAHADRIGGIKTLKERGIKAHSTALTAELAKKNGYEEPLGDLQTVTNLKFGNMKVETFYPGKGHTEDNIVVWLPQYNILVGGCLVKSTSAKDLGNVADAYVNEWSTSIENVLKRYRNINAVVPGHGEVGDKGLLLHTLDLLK
Method: as §1, §5, §2, §3

[7] = target: T2, E166Cf enzyme; assay: Time-resolved fluorescence of E166Cf enzyme with β-lactamase inhibitors; details: 1.0×10^−3 M inhibitor; E166Cf 1.2×10^−7 M, 50 mM phosphate buffer pH 7.0
Method: Time-resolved fluorescence measurements of the E166Cf enzyme in the presence of sulbactam and clavulanate were performed on a Perkin Elmer LS50B spectrofluorometer. The excitation and emission wavelengths were set at 494 and 515 nm respectively. Both excitation and emission slit widths were set at 5 nm. All fluorescence measurements were performed at room temperature.
The fluorescence signals of the labeled enzyme (1.2×10^−7 M) obtained with sulbactam (1.0×10^−4 M) and clavulanate (1.0×10^−3 M) in 50 mM phosphate buffer (pH 7.0) are entirely different (FIGS. 18 and 19).

[8] = target: T6, E166Cf (fluorescein-labeled E166C mutant of β-lactamase I) (Bacillus cereus, UniProt P00809, E185C); assay: Spectrophotometric substrate hydrolysis, steady-state kinetics; details: E166Cf; 50 mM potassium phosphate buffer pH 7.0, 20° C.
T6 construct: made in house; host or cells: B. subtilis 1A304 (φ105MU331); then labelled chemically
T6 sequence (P00809 28-306 E185C): T2 sequence (P00809 28-306 E185C)
Method: (§6) The hydrolytic activities of the wild-type β-lactamase I, E166C and E166Cf mutants towards penicillin G, penicillin V and ampicillin (Sigma) were monitored by the spectrophotometric method. The spectrophotometric measurements were performed on a Perkin Elmer Lambda Bio20 UV/Vis spectrometer. Substrate hydrolysis was monitored at a fixed wavelength: 235 nm for ampicillin, 232 nm for penicillin G and penicillin V. The initial rate of substrate hydrolysis occurring within 5 min was determined in duplicate at each of 6 different substrate concentrations in 50 mM potassium phosphate buffer (pH 7.0) at 20° C. The initial rates determined were then treated as described in Reference 5 to calculate the Michaelis constants (Km) and turnover numbers (kcat) using non-linear regression analysis (equation 1):
(§7) [formula] where v is the initial rate of substrate hydrolysis, Vmax the maximum rate of reaction, [S] the initial substrate concentration, Km the Michaelis constant and kcat=Vmax/[Enzyme].
(§8) The measured steady-state kinetic parameters for hydrolysis of penicillin G, penicillin V and ampicillin by the wild-type β-lactamase I, E166C and E166Cf mutants are summarized in Table 1.
as §4

[9] = target: T7, E166C mutant of β-lactamase I (Bacillus cereus, UniProt P00809, E185C); assay: as above; details: 50 mM potassium phosphate buffer pH 7.0, 20° C.
T7 construct: made in house; host or cells: B. subtilis 1A304 (φ105MU331)
T7 sequence (P00809 28-306 E185C): T2 sequence (P00809 28-306 E185C)
Method: as §6, §7, §8

[10] = target: T8, wild-type β-lactamase I (Bacillus cereus, UniProt P00809); assay: as above; details: 50 mM potassium phosphate buffer pH 7.0, 20° C.
T8 construct: made in house; host or cells: B. subtilis 1A304 (φ105MU331)
T8 sequence (P00809 28-306): as the sequence (P00809 28-306) above
Method: as §6, §7, §8

SMILES	fluorescence signal of E166Cf (beta-lactam hydrolysis) [1]	time course of E166Cf fluorescence signal at 515 nm [2]	change in CD signal of antibiotic (hydrolysis by E166Cf) [3]	fluorescence signal of E166Cf (beta-lactam hydrolysis) [4]	fluorescence signal of E166Cf (beta-lactam hydrolysis) [5]	fluorescence signal of E166Cf (beta-lactam hydrolysis) [6]	time course of E166Cf fluorescence signal at 515 nm [7]	Km [8] [µM]	kcat [8] [s⁻¹]	Km [9] [µM]	kcat [9] [s⁻¹]	Km [10] [µM]	kcat [10] [s⁻¹]
CO[C@@]1(NC(=O)Cc2cccs2)C(=O)N2C(C(=O)O)=C(COC(N)=O)CS[C@@H]21 [Cefoxitin, cefoxitin]	+	no subsequent decline in intensity was observed	no significant changes in the CD signals	+	+	+							
O=C(O)[C@H]1/C(=C/CO)O[C@@H]2CC(=O)N21 [clavulanate]							instantaneous increase in fluorescence signal which declines rapidly within 200 s and then levels off to a plateau						
CC1(C)S[C@@H]2[C@H](NC(=O)COc3ccccc3)C(=O)N2[C@H]1C(=O)O [Penicillin V, penicillin V]	−			−	−	−		117 ± 10	2.97 ± 0.06	71 ± 6	1.53 ± 0.03	52 ± 4	2109 ± 4
